The text below walks through data of US12673947B2 (Cytosinlab Therapeutics Co., Ltd., priority 2020, dated 2026).

The target of assay [1] is T1, FLT3 (Homo sapiens, UniProt P36888).
T1 construct: purchased Carna 08-145
T1 sequence (P36888 27-993): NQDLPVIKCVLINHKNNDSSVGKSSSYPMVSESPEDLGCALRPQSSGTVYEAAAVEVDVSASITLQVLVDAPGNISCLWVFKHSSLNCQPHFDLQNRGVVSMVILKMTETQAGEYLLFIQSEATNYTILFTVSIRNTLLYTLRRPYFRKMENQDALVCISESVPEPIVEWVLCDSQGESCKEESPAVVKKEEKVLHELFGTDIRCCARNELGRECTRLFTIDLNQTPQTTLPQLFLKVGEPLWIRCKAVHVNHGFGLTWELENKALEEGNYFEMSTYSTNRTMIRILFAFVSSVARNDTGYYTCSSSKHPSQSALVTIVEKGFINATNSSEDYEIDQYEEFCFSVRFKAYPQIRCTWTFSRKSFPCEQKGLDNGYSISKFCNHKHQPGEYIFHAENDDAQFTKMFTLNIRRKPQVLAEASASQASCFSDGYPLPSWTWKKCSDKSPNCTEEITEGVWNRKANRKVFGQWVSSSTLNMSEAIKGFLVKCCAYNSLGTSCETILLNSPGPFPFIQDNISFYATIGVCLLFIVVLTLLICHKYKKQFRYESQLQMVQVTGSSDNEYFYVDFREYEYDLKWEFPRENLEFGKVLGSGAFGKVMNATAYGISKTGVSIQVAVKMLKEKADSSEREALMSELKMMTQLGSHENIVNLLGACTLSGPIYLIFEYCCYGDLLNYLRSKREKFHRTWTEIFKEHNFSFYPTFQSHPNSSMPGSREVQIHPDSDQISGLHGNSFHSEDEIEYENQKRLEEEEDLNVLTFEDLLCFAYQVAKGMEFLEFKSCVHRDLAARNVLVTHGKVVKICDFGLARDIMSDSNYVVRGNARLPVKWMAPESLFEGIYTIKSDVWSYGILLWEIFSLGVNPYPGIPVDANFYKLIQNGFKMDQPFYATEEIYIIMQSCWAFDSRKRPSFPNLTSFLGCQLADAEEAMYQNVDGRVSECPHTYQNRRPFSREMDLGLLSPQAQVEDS
Nature of the assay: FLT3 kinase in vitro inhibitory activity experiment (Caliper mobility shift, conversion rate). In kind it is biochemical. Conditions: IC50 class, read-out: Enzyme activity FLT3. In outline: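 FLT3 was pre-incubated with compound for 10 min at room temperature, then the reaction was started with ATP plus Kinase substrate 2 and run 30 min at room temperature before stop solution. Substrate conversion was read by Caliper mobility shift.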

Assay [2] has as its system MV4;11 cells. Put plainly: MV4;11 in vitro inhibition of proliferation assay (CellTiter-Glo, 72 hours). In kind it is cell-based. The following applies: Homo sapiens, MV4-11, 72 h, IC50 class, read-out: Inhibitory activity of cell proliferation MV4;11. The essentials:
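MV4;11 cells in IMDM/10% FBS, 2000 per well, were exposed to 9-point 3-fold DMSO dilutions from 10 uM (final DMSO 0.3%) in triplicate for 72 hours at 37° C., 5% CO2. Viability was read by CellTiter-Glo luminescence, and IC50 came from a four-parameter fit of inhibition.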
A general note: Cellular ATP, detected with luciferase, serves as a proxy for viable cell number.

`CCc1nc2c(N)ncc(-c3cnn(-c4ccc(C(C)(C)O)cc4)c3)c2nc1N[C@@H]1CC[C@H](O)C1` [Compound 333]: the IC50 in assay [1] and in assay [2] was at most 10 nM throughout.

Consider `CCc1nc2c(N)ncc(-c3cnn(-c4ncc(C#N)cn4)c3)c2nc1N[C@@H]1CC[C@H](O)C1` [Compound 335], for which the IC50 in assay [1] and in assay [2] was at most 10 nM in each case.

Consider `CCc1nc2c(N)ncc(-c3cnn(-c4ccc(C#N)cc4)c3)c2nc1N[C@@H]1CC[C@H](O)C1` [Compound 336], for which the IC50 in assay [1] and in assay [2] was at most 10 nM in each case.

For `CCc1nc2c(N)ncc(-c3cnn(-c4ccc(C#N)nn4)c3)c2nc1N[C@@H]1CC[C@H](O)C1` [Compound 337], the figures for the IC50 in assay [1] and in assay [2] were at most 10 nM and 10 to 100 nM, respectively.

In the case of `CCc1nc2c(N)ncc(-c3cnn(-c4cnc(C#N)nc4)c3)c2nc1N[C@@H]1CC[C@H](O)C1` [Compound 338], the IC50 in assay [1] and in assay [2] was at most 10 nM in each case.

`CCc1nc2c(N)ncc(-c3cnn(-c4cnc(C#N)cn4)c3)c2nc1N[C@@H]1CC[C@H](O)C1` [Compound 339]: the IC50 in assay [1] was at most 10 nM; in assay [2] it was 10 to 100 nM.

Consider `CCc1nc2c(N)ncc(-c3cnn(-c4ccc(C(F)F)nc4)c3)c2nc1N[C@@H]1CC[C@H](O)C1` [Compound 340], for which the results for the IC50 in assay [1] and in assay [2] were at most 10 nM and 10 to 100 nM, respectively.

For the compound `CCc1nc2c(N)ncc(-c3cnn(-c4ncc(F)cn4)c3)c2nc1N[C@@H]1CC[C@H](O)C1` [Compound 341], the IC50 in assay [1] and in assay [2] was at most 10 nM in each case.

Take `CCc1nc2c(N)ncc(-c3cnn(-c4ccc(F)c(F)c4)c3)c2nc1N[C@@H]1CC[C@H](O)C1` [Compound 342]: the IC50 in assay [1] is at most 10 nM; in assay [2], 10 to 100 nM.

For the compound `CCc1nc2c(N)ncc(-c3cnn(-c4ccnc(F)c4)c3)c2nc1N[C@@H]1CC[C@H](O)C1` [Compound 343], the IC50 in assay [1] and in assay [2] was at most 10 nM throughout.

Take `CCc1nc2c(N)ncc(-c3cnn(-c4ncc(OC(C)C)cn4)c3)c2nc1N[C@@H]1CC[C@H](O)C1` [Compound 344]: the IC50 in assay [1] and in assay [2] was at most 10 nM throughout.

Turning to `CCc1nc2c(N)ncc(-c3cnn(-c4ccnc(Cl)c4)c3)c2nc1N[C@@H]1CC[C@H](O)C1` [Compound 345], the IC50 in assay [1] and in assay [2] was at most 10 nM in each case.

As to `CCc1nc2c(N)ncc(-c3cnn(-c4ncc(C#N)cn4)c3)c2nc1NC1CCOCC1` [Compound 346], the values for the IC50 in assay [1] and in assay [2] were at most 10 nM and 10 to 100 nM, respectively.

As to `CCc1nc2c(N)ncc(-c3cnn(-c4ccc(C(C)(C)O)nc4)c3)c2nc1NC1CCOCC1` [Compound 347], the results for the IC50 in assay [1] and in assay [2] were at most 10 nM and 10 to 100 nM, respectively.

For `CCc1nc2c(N)ncc(-c3cnn(-c4ncc(C(C)(C)O)cn4)c3)c2nc1NC1CCOCC1` [Compound 348], the IC50 in assay [1] was at most 10 nM; in assay [2], 10 to 100 nM.

Take `CCc1nc2c(N)ncc(-c3cnn(-c4cnc(C(C)(C)O)nc4)c3)c2nc1NC1CCOCC1` [Compound 349]: the IC50 was at most 10 nM in assay [1] and 10 to 100 nM in assay [2].

On to `CCc1nc2c(N)ncc(-c3cnn(-c4ccc(CNC)cc4)c3)c2nc1NC1CCOCC1` [Compound 350], for which the IC50 in assay [1] and in assay [2] was at most 10 nM throughout.

Regarding `CCc1nc2c(N)ncc(-c3cnn(-c4ccc(C(C)(C)C)cc4)c3)c2nc1N[C@@H]1CC[C@H](O)C1` [Compound 351], the results for the IC50 in assay [1] and in assay [2] were at most 10 nM and 10 to 100 nM, respectively.

On to `CCc1nc2c(N)ncc(-c3cnn(-c4nccc(C(C)(C)O)n4)c3)c2nc1N[C@@H]1CC[C@H](O)C1` [Compound 352], for which the IC50 in assay [1] is at most 10 nM; in assay [2] it was 10 to 100 nM.

`CCc1nc2c(N)ncc(-c3cnn(-c4ccc(C#N)c(F)c4)c3)c2nc1N[C@@H]1CC[C@H](O)C1` [Compound 353]: the IC50 was at most 10 nM in assay [1] and 10 to 100 nM in assay [2].

Turning to `CCc1nc2c(N)ncc(-c3cnn(-c4ccc(C(C)(C)O)nn4)c3)c2nc1N[C@@H]1CC[C@H](O)C1` [Compound 354], the IC50 was at most 10 nM in assay [1] and 10 to 100 nM in assay [2].

Take `CCc1nc2c(N)ncc(-c3cnn(-c4ccc(C(C)(C)O)c(F)c4)c3)c2nc1N[C@@H]1CC[C@H](O)C1` [Compound 355]: the IC50 in assay [1] and in assay [2] was at most 10 nM each time.

As to `CCc1nc2c(N)ncc(-c3cnn(-c4cnc(C(C)(C)O)nc4)c3)c2nc1N[C@@H]1CC[C@@H](O)C1` [Compound 356], the IC50 in assay [1] was at most 10 nM; in assay [2], 10 to 100 nM.

For `CCc1nc2c(N)ncc(-c3cnn(-c4ccc5c(c4)CCO5)c3)c2nc1N[C@@H]1CC[C@H](O)C1` [Compound 357], the IC50 in assay [1] and in assay [2] was at most 10 nM throughout.

In the case of `CCc1nc2c(N)ncc(-c3ccc(NCCNC(=O)[C@H](C)N(C)C(=O)/C=C/CN(C)C)c(OC)c3)c2nc1NC1CCOCC1` [Compound 358, (S,E)-N-(1-((2-((4-(5-amino-3-ethyl-2-((tetrahydro-2H-pyran-4-yl)amino)pyridino[3,4b]pyrazine-8-yl)-2-methoxyphenyl)amino)ethyl)amino)-1-oxopropane-2-yl)-4-(dimethylamino)-N-methylbutyl-2-enamide], the IC50 in assay [1] was in the range of 10 to 100 nM; in assay [2] it was 100 to 500 nM.
